In paper PMC6616128, “Liquiritin, as a Natural Inhibitor of AKR1C1, Could Interfere With the Progesterone Metabolism” (Frontiers in Physiology, 2019):
Positions count from the first letter of the chain named. Where two headings read alike, the source gives them in different places.

Tests used:
recombinant AKR1C2 = molecular target: T1, recombinant AKR1C2 (Homo sapiens, UniProt P52895); test: Enzyme activity (NADPH) assay with s-tetralol, recombinant GST-AKR1C2; type: biochemical; details: s-tetralol 103.30 μM as substrate
T1 construct: made in house; host or cells: Escherichia coli JM109
T1 sequence (P52895 1-323): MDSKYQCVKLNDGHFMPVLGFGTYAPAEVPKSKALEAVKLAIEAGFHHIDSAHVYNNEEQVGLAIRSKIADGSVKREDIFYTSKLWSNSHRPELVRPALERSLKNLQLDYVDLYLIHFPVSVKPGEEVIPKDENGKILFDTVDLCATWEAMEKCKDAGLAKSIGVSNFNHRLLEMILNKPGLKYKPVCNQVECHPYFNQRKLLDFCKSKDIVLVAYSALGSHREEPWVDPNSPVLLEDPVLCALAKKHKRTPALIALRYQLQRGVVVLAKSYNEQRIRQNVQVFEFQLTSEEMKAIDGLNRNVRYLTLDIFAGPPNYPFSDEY
Experimental: (§1) Protein concentrations were determined using the Bradford protein assay kit.
(§2) To screen for the indicated inhibitor, the assay mixture was added with additional DMSO or 2 μM compounds. […] The inhibition patterns were determined by fitting initial velocity and inhibitor concentration into inhibition models using Graphpad Prism 6.0. All inhibition data were obtained from single experiments, with samples conducted in duplicate.
(§3) Each experiment was repeated three times and the differences among means were significant determined by Student t-text (^∗p < 0.05; ^∗∗p < 0.01; ^∗∗∗p < 0.001).

recombinant AKR1C3 = molecular target: T2, recombinant AKR1C3 (Homo sapiens, UniProt P42330); test: biochemical
T2 sequence (P42330 1-323): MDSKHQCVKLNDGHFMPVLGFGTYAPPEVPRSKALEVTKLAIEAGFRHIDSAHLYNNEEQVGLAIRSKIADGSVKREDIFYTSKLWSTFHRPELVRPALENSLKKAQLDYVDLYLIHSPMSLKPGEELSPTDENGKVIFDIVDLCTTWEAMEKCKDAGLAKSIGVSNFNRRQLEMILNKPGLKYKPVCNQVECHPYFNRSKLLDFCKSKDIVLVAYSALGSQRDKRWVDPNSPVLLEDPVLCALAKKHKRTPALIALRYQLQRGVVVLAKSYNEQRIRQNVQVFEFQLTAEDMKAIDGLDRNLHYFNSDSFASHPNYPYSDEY
Experimental: as §1, §2, §3

AKR1C1 [1] = molecular target: T3, AKR1C1 (Homo sapiens, UniProt Q04828); test: Enzyme activity (NADPH) assay with s-tetralol, recombinant GST-AKR1C1; type: biochemical; design: made in house; host or cells: Escherichia coli JM109;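 note: GST-fused AKR1C1 expressed in E. coli and purified by glutathione affinity, control wells received DMSO instead of compound, duplicate samples from a single experiment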
T3 sequence (Q04828 1-323): T1 sequence (P52895 1-323) with V38T, H47R, V54L, S87C, M151V, H170R, L172Q
Experimental: GST-tagged recombinant AKR1C isoforms expressed JM109 was grown in Luria-Bertani broth (100 μg⋅ml-1 ampicillin, pH = 7.0) at 37°C with orbital shaking at 220 rpm. When cells achieved an OD600 nm between 0.4 and 0.6, 0.3 mM final concentration of isopropyl β-D-1-thiogalactopyranoside (IPTG) was added to the cultures and incubated for an additional 12 h at 25°C. Cells were harvested by centrifugation at 8000 g for 10 min, and the cell pellets were stored at -80°C for storage. The pellets were resuspended in 1 × PBS, pH = 7.4 and lysed by ultrasonication at ice-cold temperature using an UH-03 union instrument. The purification of glutathione-S-transferase (GST)-fusion AKR1C1, AKR1C2, and AKR1C3 were then carried out using ÄKTA systems from GE Healthcare as described in Handbook. The recombinant proteins were eluted in 50 mM Tris–HCl (pH = 8.0) with 20 mM reduced glutathione, fresh preparedly. Protein concentrations were determined using the Bradford protein assay kit. All proteins were aliquoted and stored at -80°C containing 20% glycerol.
as §2
Firstly, we overexpressed recombinant human AKR1C in E. coli in the form of a GST-fusion protein, and then purified it by affinity chromatography on glutathione-Sepharose.
To screen for the inhibitors of AKR1C1, we developed a readily accessible indirect NADPH generating-based assay that can be used for high-throughput inhibitors screening. […] Wells were included containing enzyme and no inhibitor or 2 μM inhibitor.

AKR1C1 [2] = molecular target: T3, AKR1C1; test: Progesterone metabolism in HEC-1-B cells transfected with AKR1C1 plasmid; type: cell-based; design: expressed in transfected cells; host or cells: HEC-1-B cells; details: 50 μM compound, 5 μM progesterone, 6 h
Experimental: HEC-1-B cell line was purchased from the Cell Bank of the Chinese Academy of Sciences (Shanghai, China). HEC-1-B cell was cultured in DMEM (Gibco, Grand Island, New York, United States) supplemented with 10% fetal bovine serum at 37°C in a 5% CO2 incubator. In all experiments, the cells were used at passages 4 to 10. The cells were transfected with AKR1C1 plasmid using jet PRIME reagent (Polyplus) according to manufacturer’s instructions. […] The culture media were collected immediately and 6 h later. […] A LC-20A High Performance liquid chromatography (Shimadzu, Japan) with UV detector was used for analyzing progesterone cultured from the cells. […] The mobile phase used was a mixture of mobile phase A and mobile phase B in an isocratic program as 3:7 running on an Agilent HC C18 column (150 mm × 4.6 mm, 5 μm particle size) at a constant temperature of 35°C. The flow rate was 1.0 mL/min and the detection wavelength was 245 nm. The whole analytical period was 10 min for each sample. The standard (progesterone) was dissolved in methanol. […]
Therefore, we choose to transfect cells with AKR1C1 gene for cellular study. […] Each experiment was repeated three times and the differences among means were significant determined by Student t-text (^∗p < 0.05; ^∗∗p < 0.01; ^∗∗∗p < 0.001).

IC50 (recombinant AKR1C2): 610 ± 50 nM
IC50 (recombinant AKR1C3): 3720 ± 90 nM
remaining activity at 2 µM (AKR1C1 [1]; 2 μM compound, Figure 1A, read-out: % Enzyme Activity): 31%
slope (AKR1C1 [1]; 2 μM compound, Supplementary Table 1, CON 0.0122): 0.003777
enzyme activity (AKR1C1 [1]; 2 μM compound, Supplementary Table 1, CON 192.295568): 59.5351 nmol/min/mg
remaining activity at 2 µM (AKR1C1 [1]; 2 μM compound, Supplementary Table 1, CON = 1, read-out: ratio (activity relative to CON)): 31%
inhibition at 2 µM (AKR1C1 [1]; 2 μM compound, Supplementary Table 1, read-out: % inhibition): 69%
inhibition at 2 µM (AKR1C1 [1]; 2 μM compound, text on Figure 1A, read-out: inhibitory effect over AKR1C1 enzyme activity (% inhibition)): 34%
inhibition pattern (AKR1C1 [1]; s-tetralol concentration variation): competitive inhibitor
IC50 ratio 1C1/1C2 (AKR1C1 [1]; selectivity AKR1C1 vs AKR1C2): 1.03
IC50 ratio 1C1/1C3 (AKR1C1 [1]; selectivity AKR1C1 vs AKR1C3): 0.17
inhibition at 50 µM (AKR1C1 [2]): 85%
SMILES: O=C1C[C@@H](c2ccc(O[C@@H]3O[C@H](CO)[C@@H](O)[C@H](O)[C@H]3O)cc2)Oc2cc(O)ccc21 [Liquiritin]
